Source: patent US4146719A, “Piperazinyl derivatives of quinoline carboxylic acids” (priority 1977, dated 1979)
≈ marks a conversion by molar mass, not a printed value. Like-named read-outs stand apart in the source and are kept apart here.

Columns and labels:
[1] = test system: Streptococcus pyogenes IID 692; assay: Antibacterial activity in vitro, M.I.C., agar dilution streak method; assay type: cell-based; settings: Streptococcus pyogenes, IID692
[2] = test system: Pr. vulgaris XK Denken; assay: as above; assay type: cell-based, Proteus vulgaris; settings: Proteus vulgaris
[3] = test system: Escherichia coli NIHJ; assay: as above; assay type: cell-based; settings: Escherichia coli
[4] = test system: Ps. aeruginosa IID 1210; assay: as above; assay type: cell-based, Pseudomonas aeruginosa; settings: Pseudomonas aeruginosa, IID1210
[5] = test system: Str. faecalis IID 682; assay: as above; assay type: cell-based; settings: Enterococcus faecalis, IID682; Gram +
[6] = test system: Diplococcus pneumoniae IID 552; assay: as above; assay type: cell-based; settings: Streptococcus pneumoniae, IID552
[7] = test system: Pseudomonas aeruginosa IID 1210; assay: Preventive effect against systemic infection with Pseudomonas aeruginosa in mice; assay type: in vivo, Pseudomonas aeruginosa; mice (ddY, male); settings: Pseudomonas aeruginosa, subcutaneous, challenge 3.5 × 10^4 cells/mouse
Method: Systemic infection was produced by inoculating male mice (strain: ddY, 6 weeks old, body weight: 28-33g) in intraperitoneally with Pseudomonas aeruginosa IID 1210 suspended in 0.5 ml of Brain heart infusion broth (Eiken) containing 5% mucin. […] Each of these test materials was administered to the mice twice, immediately after and then 6 hours after the inoculation, and the therapeutic effect of each compounds was judged from the survival rate.
(1) Miller L. C. and M. L. Tainter: Estimation of the ED50 and its error by means of logarithmic-probit graph paper Proc. Soc. Exp. Biol. Med. 57 261-264 (1944)
(2) Litchfield J. T. and F. Wilcoxon: A simplified method of evaluating dose - effect J. Pharmacol. 92 99-113 (1948)

[8] = test system: Ps. aeruginosa IID 1130; assay: Antibacterial activity in vitro, M.I.C., agar dilution streak method; assay type: cell-based, Pseudomonas aeruginosa; settings: Pseudomonas aeruginosa, IID1130
[9] = test system: Ps. aeruginosa IFO 12689; assay: as above; assay type: cell-based, Pseudomonas aeruginosa; settings: Pseudomonas aeruginosa, IFO12689
[10] = test system: Staphylococcus aureus 209P; assay: as above; assay type: cell-based; settings: Staphylococcus aureus, 209P
[11] = test system: Klebsiella pneumoniae IFO 3512; assay: as above; assay type: cell-based; settings: Klebsiella pneumoniae, IFO3512
[12] = test system: Mycobacterium phlei IFO 3142; assay: as above; assay type: cell-based; settings: Mycolicibacterium phlei, IFO3142
[13] = test system: E. coli ATCC 10536; assay: as above; assay type: cell-based, Escherichia coli; settings: Escherichia coli, ATCC10536
[14] = test system: Neisseria perflava IID 856; assay: as above; assay type: cell-based; settings: Neisseria perflava, IID856
[15] = test system: Haemophilus influenzae IID 986; assay: as above; assay type: cell-based; settings: Haemophilus influenzae, IID986
[16] = test system: Shigella sonnei IID 969; assay: as above; assay type: cell-based; settings: Shigella sonnei, IID969; Gram -
[17] = test system: Bacillus subtilis PCI 219; assay: as above; assay type: cell-based; settings: Bacillus subtilis, PCI219
[18] = test system: Sta. aureus ATCC 14775; assay: as above; assay type: cell-based, Staphylococcus aureus; settings: Staphylococcus aureus, ATCC14775
[19] = test system: Pseudomonas aeruginosa V-1; assay: as above; assay type: cell-based; settings: Pseudomonas aeruginosa, V1
[20] = test system: Corynebacterium pyogenes IID 548; assay: as above; assay type: cell-based; settings: Corynebacterium pyogenes, IID548; Gram +
[21] = test system: Salmonella enteritidis IID 604; assay: as above; assay type: cell-based; settings: Salmonella enterica
[22] = test system: Str. pyogenes S-8; assay: as above; assay type: cell-based, Streptococcus pyogenes; settings: Streptococcus pyogenes, S8
[23] = test system: My. smegmatis IFO 3083; assay: as above; assay type: cell-based; settings: Mycolicibacterium smegmatis, IFO3083
[24] = test system: Proteus vulgaris IFO 3167; assay: as above; assay type: cell-based; settings: Proteus vulgaris, IFO3167
[25] = test system: Escherichia coli NIHJ JC-2; assay: Preventive effect against ascending kidney infection in mice with Escherichia coli; assay type: in vivo, Escherichia coli; mice (ddY, female); settings: Escherichia coli
Method: Ascending kidney infection was induced in female mice (strain: ddY, 6 weeks old, body weight: 22-26g), by instilling Escherlichia coli NIHJ JC-2 suspended in 0.04 ml of Tryptosoya broth (Nissan) into the urinary tract of mice anesthetized with sodium pentobarbital and by holding for 6 hours the mice in plastic tubes (diameter 25 mm) and clamping the outlet of urinary tract.
Each of these test material was orally administered 3 hours after inoculation. Mice were sacrificed 48 hours after inoculation. Kidneys were removed aseptically and bisected, and the two halves were pressed and streaked on agar plate containing Desoxycholate medium (Nissan). The therapeutic effect of each compound was evaluated from the absence of growth on the agar surface after 20 hours of incubation at 37° C.

[26] = Chem. Abstr., 62, 15600h (1965); cited from earlier work
[27] = test system: Escherichia coli NIHJ JC-2; assay: Influence of rat bile on antibacterial activity; assay type: cell-based; settings: bile of rats
Method: Nutrient agar was heated and melted. […] The diameter of the inhibition zone was measured.

[28] = Biliary excretion in rats after a single oral administration of 50 mg/kg; settings: in vivo, rat, 50 mg/kg oral
[29] = Chelate formation with ferric ion; assay type: physicochemical; settings: one third molar equivalent of ferric chloride hexahydrate, water
Text: It is known that most of drugs such as Quinoform and Ethambutol which form chelates with metal ions in vivo produce undesirable side effects.

[30] = test system: gram-positive and gram-negative bacteria including Pseudomonas aeruginosa; assay: Antibacterial spectrum in vitro (summary in words); assay type: cell-based
[31] = test system: Escherichia coli; assay: Concentration ratio in serum to M.I.C. after oral administration of 50 mg/kg in rats; assay type: in vivo, Escherichia coli; rats; settings: rat, 50 mg/kg oral

## CC1(C)S[C@@H]2[C@H](NC(=O)C(C(=O)O)c3ccccc3)C(=O)N2[C@H]1C(=O)O (some centres unmarked) [Carbenicillin]
[1]; Gram +, read-out: M.I.C.
  MIC: 0.1 µg/mL (≈ 0.264 µM)
[2]; Gram -, read-out: M.I.C.
  MIC: 0.39 µg/mL (≈ 1.03 µM)
[3]
  MIC: 1.56 µg/mL (≈ 4.12 µM)
[4]; Gram -, read-out: M.I.C.
  MIC: 100 µg/mL (≈ 264 µM)
[5]
  MIC: 100 µg/mL
[6]; Gram +, read-out: M.I.C.
  MIC: 0.39 µg/mL (≈ 1.03 µM)
[7]; IID1210, sc, twice (immediately and 6 hours after inoculation), read-out: ED50 (95% confidence limit)
  ED50: 800 mg/kg
[7]; IID1210, twice, read-out: ED90
  ED90: 1430 mg/kg
[8]; Gram -, read-out: M.I.C.
  MIC: 200 µg/mL (≈ 529 µM)
[9]; Gram -, read-out: M.I.C.
  MIC: 100 µg/mL (≈ 264 µM)
[10]; Gram +, read-out: M.I.C.
  MIC: 0.39 µg/mL (≈ 1.03 µM)
[11]; Gram -, read-out: M.I.C.
  MIC: > 200 µg/mL
[12]; Gram +, read-out: M.I.C.
  MIC: > 200 µg/mL
[13]
  MIC: 1.56 µg/mL (≈ 4.12 µM)
[14]
  MIC: 1.56 µg/mL (≈ 4.12 µM)
[15]; Gram -, read-out: M.I.C.
  MIC: 0.39 µg/mL (≈ 1.03 µM)
[16]
  MIC: 1.56 µg/mL (≈ 4.12 µM)
[17]; Gram +, read-out: M.I.C.
  MIC: 0.39 µg/mL (≈ 1.03 µM)
[18]; Gram +, read-out: M.I.C.
  MIC: 6.25 µg/mL (≈ 16.5 µM)
[19]; Gram -, read-out: M.I.C.
  MIC: 12.5 µg/mL (≈ 33 µM)
[20]
  MIC: 0.2 µg/mL
[21]; Gram -, read-out: M.I.C.
  MIC: 12.5 µg/mL (≈ 33 µM)
[22]; Gram +, read-out: M.I.C.
  MIC: 0.1 µg/mL (≈ 0.264 µM)
[23]; Gram +, read-out: M.I.C.
  MIC: 6.25 µg/mL (≈ 16.5 µM)
[24]; Gram -, read-out: M.I.C.
  MIC: 6.25 µg/mL (≈ 16.5 µM)

## CCn1cc(C(=O)O)c(=O)c2ccc(C)nc21 [Nalidixic acid]
[1]
  MIC: > 100 µg/mL
[2]
  MIC: 3.13 µg/mL (≈ 13.5 µM)
[3]
  MIC: 3.13 µg/mL (≈ 13.5 µM)
[25]; NIHJJC2, 48 h
  ED90: 345 mg/kg
[25]; NIHJJC2, po, 48 h, read-out: ED50 (95% confidence limit)
  ED50: 86 mg/kg
[26]
  chelate compound with ferric ion: afforded chelate compound when treated with ferric ion
[4]
  MIC: > 200 µg/mL
[6]
  MIC: > 100 µg/mL
[8]
  MIC: > 200 µg/mL
[9]
  MIC: > 200 µg/mL
[27]
  antibacterial activity in presence of bile (in words): not influenced by bile of rats
[28]; 0-3 hours, mean ±S.E., read-out: Biliary excretion, cumulative recovery
  dose excreted at 3 h: 0.29 ± 0.03%
[28]; 0-3 hrs., mean±S.E., read-out: Biliary level
  concentration at 3 h: 14700 ± 1500 ng/mL
[28]; 0-6 hours, mean ±S.E., read-out: Biliary excretion, cumulative recovery
  dose excreted at 6 h: 0.56 ± 0.05%
[28]; 0-24 hours, mean ±S.E., read-out: Biliary excretion, cumulative recovery
  dose excreted at 24 h: 1.33 ± 0.1%
[28]; 0-27 hours, mean ±S.E., read-out: Biliary excretion, cumulative recovery
  dose excreted at 27 h: 1.33 ± 0.1%
[28]; 3-6 hrs., mean±S.E., read-out: Biliary level
  concentration at 6 h: 16600 ± 2400 ng/mL
[28]; 6-24 hrs., mean±S.E., read-out: Biliary level
  concentration at 24 h: 9300 ± 1600 ng/mL
[28]; 24-27 hrs., read-out: Biliary level (not detected symbol)
  concentration at 27 h: < 2000 ng/mL
[10]
  MIC: 100 µg/mL (≈ 431 µM)
[11]
  MIC: 1.56 µg/mL (≈ 6.72 µM)
[12]
  MIC: 100 µg/mL (≈ 431 µM)
[13]
  MIC: 3.13 µg/mL (≈ 13.5 µM)
[14]
  MIC: 1.56 µg/mL (≈ 6.72 µM)
[29]; from 256 and 326 nm, NaOH
  shift of absorption maxima on treatment with ferric ion: shifted to shorter wave length at 248 and 311 nm
[29]; molar equivalent of sodium hydroxide
  chelate compound with ferric ion: 3:1 chelate compound of nalidixic acid and ferric ion was obtained
[30]
  antibacterial activity (in words): inactive on many strains of gram-positive bacteria and many Pseudomonas aeruginosa strains
[15]
  MIC: 1.56 µg/mL (≈ 6.72 µM)
[16]
  MIC: 1.56 µg/mL (≈ 6.72 µM)
[17]
  MIC: 6.25 µg/mL (≈ 26.9 µM)
[18]
  MIC: > 100 µg/mL
[19]
  MIC: 100 µg/mL (≈ 431 µM)
[21]
  MIC: 12.5 µg/mL (≈ 53.8 µM)
[22]
  MIC: > 100 µg/mL
[31]
  serum concentration / M.I.C. ratio (in words): smaller than that of the compound (II)
[23]
  MIC: > 100 µg/mL
[24]
  MIC: 3.13 µg/mL (≈ 13.5 µM)
